The record followed here is patent US9266883B2, “Ring-fused bicyclic pyridyl derivatives as FGFR4 inhibitors” (Novartis AG, priority 2013, dated 2016).

One assay concerns the target FGFR1 (407-822) (Homo sapiens (Human), UniProt P11362). The assay can be described thus: In vitro biochemical assay for FGFR1.
A further assay has as its target FGFR2 (406-821) (Homo sapiens (Human), UniProt P21802). The assay can be described thus: In vitro biochemical assay for FGFR2.
The target in another assay is FGFR3 (411-806) (Homo sapiens (Human), UniProt P22607). The assay can be described thus: In vitro biochemical assay for FGFR3.
In assay [1] the test system is HuH-7 hepatocellular carcinoma cells. The assay can be described thus: CellTiter Glo (CTG) Assay. The note with it: Homo sapiens, Huh-7, 72 h, read-out: HUH7 proliferation (nM) CTG.
Assay [2] shares this test system. The assay can be described thus: Methylene Blue Staining Proliferation Assay (MBS). Particulars: Homo sapiens, Huh-7, 72 h, read-out: HUH7 proliferation (nM) MBS.
The target of assay [3] is FGFR4 (GST-FGFR4(388-802)) (Homo sapiens (Human), UniProt P22455). The assay can be described thus: In-vitro biochemical kinase assay for FGFR4 (Caliper microfluidic mobility shift). Particulars: read-out: Biochemical FGFR4 IC50.
The target in a further assay is Tel-FGFR4 (Homo sapiens (Human), UniProt P22455). The assay can be described thus: In vitro cellular kinase assay for FGFR4 (BaF3-Tel-FGFR4 cells, MSD capture ELISA of tyrosine phosphorylation). It counts as cell-based. Particulars: BaF3-Tel-FGFR4 cells, 1 hour incubation; read-out: Cellular BaF3 FGFR4 IC50. (An ELISA detects its analyte on a solid surface through an enzyme-linked reagent.)
Sequence of Tel-FGFR4 (P22455 other isoform, or with tags, fused parts or gaps): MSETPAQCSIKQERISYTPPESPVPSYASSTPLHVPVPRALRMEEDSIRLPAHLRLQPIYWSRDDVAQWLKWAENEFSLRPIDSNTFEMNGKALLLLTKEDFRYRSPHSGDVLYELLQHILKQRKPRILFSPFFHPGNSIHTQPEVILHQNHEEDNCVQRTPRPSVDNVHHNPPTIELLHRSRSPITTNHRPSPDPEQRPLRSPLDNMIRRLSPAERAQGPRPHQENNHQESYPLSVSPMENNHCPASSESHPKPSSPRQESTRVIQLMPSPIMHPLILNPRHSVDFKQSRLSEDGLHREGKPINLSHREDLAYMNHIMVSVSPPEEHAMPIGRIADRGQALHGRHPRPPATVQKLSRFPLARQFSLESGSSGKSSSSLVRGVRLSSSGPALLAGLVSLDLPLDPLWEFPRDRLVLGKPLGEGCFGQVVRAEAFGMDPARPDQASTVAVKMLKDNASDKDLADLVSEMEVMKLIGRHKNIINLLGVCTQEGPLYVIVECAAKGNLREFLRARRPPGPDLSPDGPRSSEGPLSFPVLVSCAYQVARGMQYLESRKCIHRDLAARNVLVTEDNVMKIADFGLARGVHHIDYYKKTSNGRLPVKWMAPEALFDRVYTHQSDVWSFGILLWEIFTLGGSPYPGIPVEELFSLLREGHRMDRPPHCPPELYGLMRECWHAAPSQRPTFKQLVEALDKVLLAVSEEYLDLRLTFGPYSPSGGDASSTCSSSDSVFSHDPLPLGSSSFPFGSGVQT

Sequence of FGFR4 (GST-FGFR4(388-802)) (P22455 388-802): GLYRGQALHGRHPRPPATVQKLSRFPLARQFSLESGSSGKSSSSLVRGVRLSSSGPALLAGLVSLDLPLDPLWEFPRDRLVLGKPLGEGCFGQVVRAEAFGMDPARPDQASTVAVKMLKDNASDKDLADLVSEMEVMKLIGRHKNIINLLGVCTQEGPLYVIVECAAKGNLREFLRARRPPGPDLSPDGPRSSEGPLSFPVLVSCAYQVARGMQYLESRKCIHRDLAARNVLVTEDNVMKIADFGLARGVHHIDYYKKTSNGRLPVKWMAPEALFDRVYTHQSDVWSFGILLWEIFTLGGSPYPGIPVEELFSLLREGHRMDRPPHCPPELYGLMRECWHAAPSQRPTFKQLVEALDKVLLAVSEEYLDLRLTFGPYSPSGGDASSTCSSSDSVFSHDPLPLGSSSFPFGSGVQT
Sequence of FGFR3 (411-806) (P22607 411-806): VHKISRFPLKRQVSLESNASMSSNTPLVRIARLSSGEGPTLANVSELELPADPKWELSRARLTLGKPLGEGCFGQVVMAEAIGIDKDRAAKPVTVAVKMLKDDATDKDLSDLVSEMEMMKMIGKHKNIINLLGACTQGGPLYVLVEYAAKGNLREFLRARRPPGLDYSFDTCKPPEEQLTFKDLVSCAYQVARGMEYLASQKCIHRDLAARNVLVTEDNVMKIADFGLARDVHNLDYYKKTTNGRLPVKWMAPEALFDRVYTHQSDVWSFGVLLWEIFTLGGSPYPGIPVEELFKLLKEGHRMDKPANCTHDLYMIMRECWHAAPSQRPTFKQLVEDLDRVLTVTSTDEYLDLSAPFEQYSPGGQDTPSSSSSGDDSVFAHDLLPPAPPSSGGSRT
Sequence of FGFR2 (406-821) (P21802 406-821): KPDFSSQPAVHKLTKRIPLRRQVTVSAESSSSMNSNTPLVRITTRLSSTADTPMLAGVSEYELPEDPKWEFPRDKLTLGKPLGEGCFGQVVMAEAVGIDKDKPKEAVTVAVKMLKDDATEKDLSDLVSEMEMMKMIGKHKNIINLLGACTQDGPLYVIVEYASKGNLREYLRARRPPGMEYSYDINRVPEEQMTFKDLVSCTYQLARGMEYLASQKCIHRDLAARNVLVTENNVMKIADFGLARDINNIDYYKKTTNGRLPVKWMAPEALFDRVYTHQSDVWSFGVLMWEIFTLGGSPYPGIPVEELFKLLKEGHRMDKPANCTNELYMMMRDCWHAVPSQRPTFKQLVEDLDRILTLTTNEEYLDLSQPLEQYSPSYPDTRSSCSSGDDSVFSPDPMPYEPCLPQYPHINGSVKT
Sequence of FGFR1 (407-822) (P11362 407-822): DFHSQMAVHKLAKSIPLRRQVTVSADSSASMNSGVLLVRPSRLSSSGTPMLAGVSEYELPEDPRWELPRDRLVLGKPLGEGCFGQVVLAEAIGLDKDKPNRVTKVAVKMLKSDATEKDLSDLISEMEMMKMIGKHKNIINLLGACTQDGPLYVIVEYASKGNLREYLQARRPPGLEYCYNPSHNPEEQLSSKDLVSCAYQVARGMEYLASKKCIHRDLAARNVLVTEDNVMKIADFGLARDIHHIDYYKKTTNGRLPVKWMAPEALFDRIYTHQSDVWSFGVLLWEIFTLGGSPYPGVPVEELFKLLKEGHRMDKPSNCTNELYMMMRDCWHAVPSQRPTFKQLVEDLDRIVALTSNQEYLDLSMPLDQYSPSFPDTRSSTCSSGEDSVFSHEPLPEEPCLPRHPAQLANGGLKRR

Turning to `CC(C)n1cnc2cnc(NC(=O)N3CCCc4cc(CN5CCN(C)CC5=O)c(C=O)nc43)cc21` [Example 216, 7-formyl-N-(1-isopropyl-1H-imidazo[4,5-c]pyridin-6-yl)-6-((4-methyl-2-oxopiperazin-1-yl)methyl)-3,4-dihydro-1,8-naphthyridine-1(2H)-carboxamide], the IC50 on FGFR1 (407-822) was > 10000 nM; against FGFR2 (406-821) it was > 10000 nM; at FGFR3 (411-806), > 10000 nM; in assay [1] it was > 3000 nM; in assay [2], > 1000 nM.

Consider `COC[C@@H](C)Oc1cc(NC(=O)N2CCCc3cc(CN4C(=O)OC[C@@H]4C)c(C=O)nc32)ncc1C#N` [Example 115, N-(5-cyano-4-(((R)-1-methoxypropan-2-yl)oxy)pyridin-2-yl)-7-formyl-6-(((S)-4-methyl-2-oxooxazolidin-3-yl)methyl)-3,4-dihydro-1,8-naphthyridine-1(2H)-carboxamide], for which the IC50 in assay [3] is 0.2 nM; on Tel-FGFR4, 3.9 nM; in assay [1] it was 17.5 nM; in assay [2], 29 nM.

As to `CN1CCC(COc2cc(NC(=O)N3CCCc4cc(CO)c(C=O)nc43)ncc2C#N)CC1` [Example 78, N-(5-cyano-4-((1-methylpiperidin-4-yl)methoxy)pyridin-2-yl)-7-formyl-6-(hydroxymethyl)-3,4-dihydro-1,8-naphthyridine-1(2H)-carboxamide], the IC50 was 20 nM in assay [3]; 17 nM on Tel-FGFR4; > 10000 nM on FGFR1 (407-822); > 10000 nM at FGFR2 (406-821); > 10000 nM against FGFR3 (411-806); 279 nM in assay [2].

Take `O=Cc1ccc2c(n1)N(C(=O)Nc1ccc(Cl)cn1)CCC2` [Example 4, N-(5-chloropyridin-2-yl)-7-formyl-3,4-dihydro-1,8-naphthyridine-1(2H)-carboxamide]: the IC50 in assay [2] was > 3000 nM.

Take `COCCNc1cc(NC(=O)N2CCCc3cc(-c4cnn(C)c4)c(C=O)nc32)ncc1C#N` [Example 251, N-(5-cyano-4-((2-methoxyethyl)amino)pyridin-2-yl)-7-formyl-6-(1-methyl-1H-pyrazol-4-yl)-3,4-dihydro-1,8-naphthyridine-1(2H)-carboxamide]: the IC50 on Tel-FGFR4 stood at 12.9 nM; in assay [1], 1340 nM; in assay [2], 264 nM.

As for `COCCNc1cc(NC(=O)N2CCCc3cc(CN4CCN(C)CC4=O)c(C=O)nc32)ncc1C#N` [Example 83, N-(5-cyano-4-((2-methoxyethyl)amino)pyridin-2-yl)-7-formyl-6-((4-methyl-2-oxopiperazin-1-yl)methyl)-3,4-dihydro-1,8-naphthyridine-1(2H)-carboxamide], the IC50 in assay [1] was determined as 60.9 nM; in assay [2], 12 nM.

Regarding `N#Cc1cnc(NC(=O)N2CCCc3cc(CO)c(C=O)nc32)cc1OC1CN2CCC1CC2` (racemic) [Example 82, N-(5-cyano-4-(quinuclidin-3-yloxy)pyridin-2-yl)-7-formyl-6-(hydroxymethyl)-3,4-dihydro-1,8-naphthyridine-1(2H)-carboxamide], the IC50 in assay [3] is 56 nM; at Tel-FGFR4, 83.5 nM; against FGFR1 (407-822), > 10000 nM; against FGFR2 (406-821), > 10000 nM; against FGFR3 (411-806), > 10000 nM; in assay [2] it was 2010 nM.

`COC[C@@H](C)Oc1cc(NC(=O)N2CCCc3cc(CN4CCN(C)CC4=O)c(C=O)nc32)ncc1C#N` [Example 205, (R)-N-(5-cyano-4-((1-methoxypropan-2-yl)oxy)pyridin-2-yl)-7-formyl-6-((4-methyl-2-oxopiperazin-1-yl)methyl)-3,4-dihydro-1,8-naphthyridine-1(2H)-carboxamide]: the IC50 is > 10000 nM against FGFR1 (407-822), > 10000 nM against FGFR2 (406-821), > 10000 nM on FGFR3 (411-806) and 14 nM in assay [2].
